This note sets out measurements from patent US4223036A, “1-(1,3-Dioxolan-2-ylmethyl)-1H-1,2,4-triazoles” (Janssen Pharmaceutica N.V., priority 1979, dated 1980).

Assay [1] has as its system Candida albicans. Description: Activity against vaginal candidosis in rats (lowest oral dose active at the 14th day after infection). The settings on record: oral once a day for two days, active at 14th day after infection; for lowest effective oral dose (vaginal candidosis in rats): Table I; for minimal effective dose: Candida albicans, 336 h. In kind it is in vivo, Female Wistar rats. On the set-up: lowest effective oral dose (vaginal candidosis in rats): unit not given here. As to the method:
Experiment A: Activity of Compounds (I) Against Vaginal Candidosis in Rats
Female Wistar rats of ±100 g body weight were used. They were ovariectomized and hysterectomized and after three weeks of recovery, 100 μg of oestradiol undecylate in sesame oil was given subcutaneously once a week for 3 consecutive weeks. The thus induced pseudooestrus was controlled by microscopic examination of vaginal smears. Food and water were left available ad libitum.
The rats were infected intravaginally with 8.10^5 cells of Candida albicans, grown on Sabouraud broth for 48 hours at 37° C. and diluted with saline. The date of infection varied from day +25 to day +32 after surgical intervention, depending on the appearance of signs of induced pseudo-oestrus.
The drugs under investigation were administered orally once a day for two days starting from the day of infection. For each experiment there were placebo treated controls. The results were assessed by taking vaginal smears with sterile swabs on several days after infection. The swabs were put into Sabouraud broth in petri-dishes and incubated for 48 hours a 37° C. If no growth of Candida albicans occured, i.e., when the animals were negative at the end of the experiment, this was due to drug administration because it never happened in placebo treated controls.
The Tables I, II and III below give the lowest oral dose of the drug under investigation which was found active at the 14th day after infection.

Assay [2] relates to Candida albicans. Nature of the assay: Activity against crop candidosis in turkeys (dose whereby crops of 50% of animals were completely negative). The class given is in vivo. The settings on record: medicated feed for 13 consecutive days. The protocol:
Experiment B: Activity of Compounds (I) Against Crop Candidosis in Turkeys
Turkeys of 14 days old were infected in the crop with 4.10^6 Candida albicans cells, grown on Sabouraud broth for 48 hours at 37° C. and diluted with saline. The volume of the inoculum was 1 ml. The drug under investigation were premixed in 500 mg of lacton and thereafter admixed in 1000 g of meal without any additives. The concentration of the drug under investigation in the meal was expressed in mg/kg.
The animals were given the medicated feed for 13 consecutive days starting on the day of infection. At the end of the experiment all animals were sacrificed. At autopsy the crops were removed, emptied and grinded in an ultra-turrax mixer in 15 ml of sterile saline. Colony counting was done on Sabouraud agar and the results given in the Tables I, II and III represent the ED50, i.e., the dose of the drug whereby the crops of 50% of the animals were completely negative for Candida albicans.

For the compound `CNC(=S)N1CCN(c2ccc(OC[C@H]3CO[C@](Cn4ccnc4)(c4ccc(Cl)cc4Cl)O3)cc2)CC1` (relative stereo), the “lowest effective oral dose (vaginal candidosis in rats)” value (“lowest effective oral dose” below) in assay [1] turned out to be 2.5. In assay [2] (Table I), the “ED50 (crop candidosis in turkeys)” value is 125 mg/kg of feed.
`CCNC(=S)Nc1ccc(OC[C@H]2CO[C@](Cn3ccnc3)(c3ccc(Cl)cc3Cl)O2)cc1` (relative stereo) [NHCSNHC2 H5, cis-N-{4-[2-(2,4-dichlorophenyl)-2-(1H-imidazol-1-ylmethyl)-1,3-dioxolan-4-ylmethoxy]phenyl}-N'-ethylthiourea]: the “lowest effective oral dose” value in assay [1] came out at 5. Moreover, the “ED50 (crop candidosis in turkeys)” value in assay [2] (Table I) is listed as 125 mg/kg of feed.
In the case of `O=CN1CCN(c2ccc(OC[C@H]3CO[C@](Cn4cncn4)(c4ccc(Cl)cc4Cl)O3)cc2)CC1` (relative stereo) [CHO, cis-4-{4-[2-(2,4-dichlorophenyl)-2-(1H-1,2,4-triazol-1-ylmethyl)-1,3-dioxolan-4-ylmethoxy]phenyl}-1-piperazinecarboxaldehyde], the minimal effective dose in assay [1] (Table II) worked out at 1.25 mg/kg. For the same compound, the “ED50 (crop candidosis in turkeys)” value in assay [2] (Table II) is on record as 16 mg/kg of feed.
`O=C(Nc1ccc(OC[C@H]2CO[C@](Cn3ccnc3)(c3ccc(Cl)cc3Cl)O2)cc1)c1ccc(Br)cc1` (relative stereo): the “lowest effective oral dose” value in assay [1] came out at 10. Also, in assay [2] (Table I), the “ED50 (crop candidosis in turkeys)” value was 31 mg/kg of feed.
Consider `Clc1ccc([C@@]2(Cn3ccnc3)OC[C@H](COc3ccc(N4CCN(Cc5ccccc5)CC4)cc3)O2)c(Cl)c1` (relative stereo) [drawing 46], for which the “lowest effective oral dose” value in assay [1] is 2.5. In assay [2] (Table I), the “ED50 (crop candidosis in turkeys)” value is 31 mg/kg of feed.
With `Nc1ccc(OC[C@H]2CO[C@](Cn3ccnc3)(c3ccc(Cl)cc3Cl)O2)cc1[N+](=O)[O-]` (relative stereo) [Example 4-NH2, cis-4-[2-(2,4-dichlorophenyl)-2-(1H-imidazol-1-ylmethyl)-1,3-dioxolan-4-ylmethoxy]-2-nitrobenzenamine], the minimal effective dose in assay [1] (Table III) turned out to be 5 mg/kg. In assay [2] (Table III), the “ED50 (crop candidosis in turkeys)” value is 31 mg/kg of feed.
Turning to `CN(C)c1ccc(OC[C@H]2CO[C@](Cn3ccnc3)(c3ccc(Cl)cc3Cl)O2)cc1` (relative stereo) [cis-4-[2-(2,4-dichlorophenyl)-2-(1H-imidazol-1-ylmethyl)-1,3-dioxolan-4-ylmethoxy]-N,N'-dimethylbenzenamine diethanedioate.hydrate], the “lowest effective oral dose” value in assay [1] is 10. The “ED50 (crop candidosis in turkeys)” value in assay [2] (Table I) was 31 mg/kg of feed.
`CS(=O)(=O)N1CCN(c2ccc(OC[C@H]3CO[C@](Cn4cncn4)(c4ccc(Cl)cc4Cl)O3)cc2)CC1` (relative stereo) [SO2CH3] had a minimal effective dose in assay [1] (Table II) of 1.25 mg/kg. Further, in assay [2] (Table II), the “ED50 (crop candidosis in turkeys)” value is reported as 31 mg/kg of feed.
Regarding `O=C(Nc1ccc(OC[C@H]2CO[C@](Cn3ccnc3)(c3ccc(Cl)cc3Cl)O2)cc1)Oc1ccccc1` (relative stereo), the “lowest effective oral dose” value in assay [1] is on record as 10. In addition, the “ED50 (crop candidosis in turkeys)” value in assay [2] (Table I) was 125 mg/kg of feed.
Consider `Nc1ccc(OC[C@H]2CO[C@](Cn3ccnc3)(c3ccc(Cl)cc3Cl)O2)cc1` (relative stereo) [NH2, cis-4-[2-(2,4-dichlorophenyl)-2-(1H-imidazol-1-ylmethyl)-1,3-dioxolan-4-ylmethoxy]benzenamine], for which the “lowest effective oral dose” value in assay [1] turned out to be 5. Moreover, in assay [2] (Table I), the “ED50 (crop candidosis in turkeys)” value is 125 mg/kg of feed.
For `NC(=O)N1CCN(c2ccc(OC[C@H]3CO[C@](Cn4ccnc4)(c4ccc(Cl)cc4Cl)O3)cc2)CC1` (relative stereo) the same measures were 5 and 125 mg/kg of feed.
As to `O=C(Nc1ccc(OC[C@H]2CO[C@](Cn3ccnc3)(c3ccc(Cl)cc3Cl)O2)cc1)c1ccccc1` (relative stereo), the “lowest effective oral dose” value in assay [1] is given as 5. Moreover, the “ED50 (crop candidosis in turkeys)” value in assay [2] (Table I) is reported as 63 mg/kg of feed.
Regarding `CCOC(=O)N1CCN(c2ccc(OC[C@H]3CO[C@](Cn4ccnc4)(c4ccc(Cl)cc4Cl)O3)cc2)CC1` (relative stereo) [drawing 31], the “lowest effective oral dose” value in assay [1] is 2.5. The “ED50 (crop candidosis in turkeys)” value in assay [2] (Table I) is 16 mg/kg of feed.
With `CN1CCN(c2ccc(OC[C@H]3CO[C@](Cn4cncn4)(c4ccc(Cl)cc4Cl)O3)cc2)CC1` (relative stereo) [CH3], the minimal effective dose in assay [1] (Table II) was determined as 1.25 mg/kg. The “ED50 (crop candidosis in turkeys)” value in assay [2] (Table II) is reported as 16 mg/kg of feed.
For `CCCNC(=O)N1CCN(c2ccc(OC[C@H]3CO[C@](Cn4ccnc4)(c4ccc(Cl)cc4Cl)O3)cc2)CC1` (relative stereo) [cis-4-{4-[2-(2,4-dichlorophenyl)-2-(1H-imidazol-1-yl-methyl)-1,3-dioxolan-4-ylmethoxy]phenyl}-N-propyl-1-piperazinecarboxamide dihydrate], the “lowest effective oral dose” value in assay [1] is recorded as 2.5. For the same compound, the “ED50 (crop candidosis in turkeys)” value in assay [2] (Table I) was 125 mg/kg of feed.
On the same counts, the results for `Clc1ccc([C@@]2(Cn3ccnc3)OC[C@H](COc3ccc(N4CCNCC4)cc3)O2)c(Cl)c1` (relative stereo) are 5 and 125 mg/kg of feed.
Regarding `CCNC(=O)Nc1ccc(OC[C@H]2CO[C@](Cn3ccnc3)(c3ccc(Cl)cc3Cl)O2)cc1` (relative stereo) [NHCONHC2 H5, cis-N-{4-[2-(2,4-dichlorophenyl)-2-(1H-imidazol-1-ylmethyl)-1,3-dioxolan-4-ylmethoxy]phenyl}-N'-ethylurea], in assay [1], the “lowest effective oral dose” value was found to be 10. Also, the “ED50 (crop candidosis in turkeys)” value in assay [2] (Table I) is recorded as 125 mg/kg of feed.
For `CC(=O)N1CCN(c2ccc(OC[C@H]3CO[C@](Cn4ccnc4)(c4ccc(Cl)cc4Cl)O3)cc2)CC1` (relative stereo) the same measures were 2.5 and 8 mg/kg of feed.

Broadly, the minimal effective dose is the lowest level tested that produced the effect sought.
